≈ marks a conversion by molar mass, not a printed value.

Data on 20 molecules can be found in ChEMBL document CHEMBL4364300, “Boron in drug design: Recent advances in the development of new therapeutic agents” (Eur J Med Chem, 2019).

The subject of one test is HepG2. Nature of the test: Antiproliferative activity against human HepG2 cells by MTT assay. In kind it is functional, cell-based.
A further test concerns Hep 3B2. Kind of test: Antiproliferative activity against human Hep3B cells by MTT assay. In kind it is functional, cell-based.
Another test relates to SK-OV-3. Nature of the test: Antiproliferative activity against human SKOV3 cells by MTT assay. It is filed as functional, cell-based.
In test [1] the test system is MDA-MB-231. Kind of test: Antiproliferative activity against human MDA-MB-231 cells by MTT assay. In kind it is functional, cell-based. On the technique in general: Formazan colour is commonly taken as a measure of viable cells.
A further test deals with HCT-116. Nature of the test: Antiproliferative activity against human HCT116 cells by MTT assay. In kind it is functional, cell-based.
Test [2] in a line: Inhibition of bacterial beta lactamase OXA-24. Details: species or system Bacteria.
Test [3] can be described thus: Inhibition of bacterial beta lactamase VIM-2. Details: species or system Bacteria.
The nature of test [4]: Inhibition of bacterial beta lactamase NDM-1. Details: species or system Bacteria.
The nature of test [5]: Inhibition of Enterobacter cloacae beta lactamase P99 after 5 mins.
Test [6] in a line: Inhibition of bacterial beta lactamase OXA-10 after 5 mins. Further details: species or system Bacteria.
Test [7] in a line: Inhibition of bacterial beta lactamase OXA-48 after 5 mins. Details: species or system Bacteria.
The nature of test [8]: Inhibition of bacterial beta lactamase CTX-M-15 after 5 mins. Details: species or system Bacteria.
The target of another test is Beta-lactamase TEM (Bacteria, UniProt P62593). Kind of test: Inhibition of bacterial beta lactamase TEM-1 after 5 mins.
Test [9] can be described thus: Inhibition of bacterial beta lactamase OXA-24 after 5 mins. Further details: species or system Bacteria.
The nature of test [10]: Inhibition of Pseudomonas aeruginosa beta lactamase AmpC after 5 mins.
Test [11] in a line: Inhibition of bacterial beta lactamase KPC-2 after 5 mins. Further details: species or system Bacteria.
The nature of test [12]: Inhibition of bacterial beta lactamase AmpC. Further details: species or system Bacteria.
Another test relates to Leishmania major. Kind of test: Antileishmanial activity Leishmania major MHOM/SA/85/JISH118 after 72 hrs by giemsa staining based light microscopic analysis. It is filed as functional, organism-based. The settings on record: MHOM/SA/85/JISH118, 72 h.
The test system of the next test is Leishmania panamensis. Nature of the test: Antileishmanial activity Leishmania panamensis MHOM/PA/67/BOYNTON after 72 hrs by giemsa staining based light microscopic analysis. In kind it is functional, organism-based.
The next test concerns Leishmania aethiopica. Kind of test: Antileishmanial activity Leishmania aethiopica MHOM/ET/84/KH after 72 hrs by giemsa staining based light microscopic analysis. It is filed as functional, organism-based.
A further test concerns Leishmania mexicana. Kind of test: Antileishmanial activity Leishmania mexicana MNYC/BZ/62/M379 after 72 hrs by giemsa staining based light microscopic analysis. It is filed as functional, organism-based. The settings on record: MNYC/BZ/62/M379, 72 h.
The test system of test [13] is Leishmania tropica. Nature of the test: Antileishmanial activity Leishmania tropica MHOM/IR/2013/HTD4 after 72 hrs by giemsa staining based light microscopic analysis. It is filed as functional, organism-based. As to conditions: MHOM/IR/2013/HTD4, 72 h.
Test [14] relates to Leishmania tropica. Nature of the test: Antileishmanial activity Leishmania tropica AO21/p after 72 hrs by giemsa staining based light microscopic analysis. In kind it is functional, organism-based.
The subject of test [15] is Mycobacterium tuberculosis. Kind of test: Antimycobacterial activity against Mycobacterium tuberculosis H37Rv after 14 days by broth micro-dilution method. It is filed as functional. As to conditions: 336 h.
The subject of a further test is THP-1. Nature of the test: Cytotoxicity against human THP1 cells after 72 hrs by SRB assay. It is filed as functional, cell-based. The settings on record: THP-1, 72 h. In general terms: Sulforhodamine B stains cellular protein and so reports cell mass.
For a further test, the system named is Streptococcus pneumoniae. Kind of test: Antibacterial activity against Streptococcus pneumoniae ATCC 49619. It is filed as functional.
The next test deals with Enterococcus faecium. Nature of the test: Antibacterial activity against Enterococcus faecium ATCC 568. It is filed as functional.
For test [16], the system named is MDA-MB-231. Nature of the test: Antiproliferative activity against human MDA-MB-231 cells after 72 hrs. In kind it is functional, cell-based. The settings on record: MDA-MB-231, 72 h.
In test [17] the target is Proteasome Macropain subunit MB1 (Homo sapiens, UniProt P28074). Nature of the test: Inhibition of human chymotrypsin-like activity of 20S proteasome (unknown origin).
The nature of test [18]: Inhibition of bacterial beta lactamase CTX-M-15. Further details: species or system Bacteria.
Test [19] in a line: Inhibition of bacterial beta lactamase KPC-2. Further details: species or system Bacteria.
The subject of test [20] is Trypanosoma brucei brucei. Kind of test: Anti-parasitic activity against trypomastigote form of Trypanosoma brucei brucei 427 after 24 hrs by resazurin dye-based assay. In kind it is functional, organism-based. As to conditions: Trypanosoma brucei, 427, 24 h. (The colour change of resazurin is a common sign of viable cells or microbes.)
The subject of a further test is Trichomonas vaginalis. Nature of the test: Antiprotozoal activity against Trichomonas vaginalis G3. It is filed as functional, organism-based.
Test [21] has as its system Mycobacterium tuberculosis. Kind of test: […] activity against Mycobacterium tuberculosis. In kind it is functional.
The nature of test [22]: Inhibition of bacterial beta lactamase CTX-M-9. Further details: species or system Bacteria.
The test system of the next test is A2780. Kind of test: Antiproliferative activity against human A2780 cells by MTT assay. It is filed as functional, cell-based.
A further test deals with GH3. Nature of the test: Cytotoxicity against rat GH3 cells. In kind it is functional, cell-based.
In test [23] the test system is Plasmodium falciparum. Kind of test: Antimalarial activity against Plasmodium falciparum 3D7 after 48 hrs by [3H]-hypoxanthine incorporation assay. In kind it is functional, organism-based.
In test [24] the test system is Plasmodium falciparum. Kind of test: Antimalarial activity against Plasmodium falciparum W2 after 48 hrs by [3H]-hypoxanthine incorporation assay. It is filed as functional, organism-based.
Test [25] concerns Plasmodium falciparum. Kind of test: Antimalarial activity against Plasmodium falciparum Dd2 after 48 hrs by [3H]-hypoxanthine incorporation assay. In kind it is functional, organism-based.
In test [26] the test system is Plasmodium falciparum. Kind of test: Antimalarial activity against Plasmodium falciparum K1 after 48 hrs by [3H]-hypoxanthine incorporation assay. It is filed as functional, organism-based.
Test [27] concerns Plasmodium falciparum. Kind of test: Antimalarial activity against Plasmodium falciparum HB3 after 48 hrs by [3H]-hypoxanthine incorporation assay. It is filed as functional, organism-based.
For test [28], the system named is Plasmodium falciparum. Kind of test: Antimalarial activity against Plasmodium falciparum FCR-3 after 48 hrs by [3H]-hypoxanthine incorporation assay. In kind it is functional, organism-based. The settings on record: FCR-3/Gambia.
Test [29] deals with Plasmodium falciparum. Nature of the test: Antimalarial activity against Plasmodium falciparum TM90C2B after 48 hrs by [3H]-hypoxanthine incorporation assay. It is filed as functional, organism-based.
Test [30] concerns Plasmodium falciparum. Kind of test: Antimalarial activity against Plasmodium falciparum Ugandan field isolates after 48 hrs by [3H]-hypoxanthine incorporation assay. In kind it is functional, organism-based.
The subject of test [31] is Plasmodium falciparum. Kind of test: Antimalarial activity against Plasmodium falciparum AN3661 derived from malaria patient. In kind it is functional.
Another test deals with Plasmodium berghei. Nature of the test: Antimalarial activity against Plasmodium berghei […]. In kind it is functional.
In test [32] the target is 3',5'-cyclic-AMP phosphodiesterase 4B (Homo sapiens, UniProt Q07343). Kind of test: Inhibition of […] human recombinant PDE4B catalytic domain (152 to 484 residues).
3',5'-cyclic-AMP phosphodiesterase 4B, sequence (Q07343 whole entry, the tested form may be a part): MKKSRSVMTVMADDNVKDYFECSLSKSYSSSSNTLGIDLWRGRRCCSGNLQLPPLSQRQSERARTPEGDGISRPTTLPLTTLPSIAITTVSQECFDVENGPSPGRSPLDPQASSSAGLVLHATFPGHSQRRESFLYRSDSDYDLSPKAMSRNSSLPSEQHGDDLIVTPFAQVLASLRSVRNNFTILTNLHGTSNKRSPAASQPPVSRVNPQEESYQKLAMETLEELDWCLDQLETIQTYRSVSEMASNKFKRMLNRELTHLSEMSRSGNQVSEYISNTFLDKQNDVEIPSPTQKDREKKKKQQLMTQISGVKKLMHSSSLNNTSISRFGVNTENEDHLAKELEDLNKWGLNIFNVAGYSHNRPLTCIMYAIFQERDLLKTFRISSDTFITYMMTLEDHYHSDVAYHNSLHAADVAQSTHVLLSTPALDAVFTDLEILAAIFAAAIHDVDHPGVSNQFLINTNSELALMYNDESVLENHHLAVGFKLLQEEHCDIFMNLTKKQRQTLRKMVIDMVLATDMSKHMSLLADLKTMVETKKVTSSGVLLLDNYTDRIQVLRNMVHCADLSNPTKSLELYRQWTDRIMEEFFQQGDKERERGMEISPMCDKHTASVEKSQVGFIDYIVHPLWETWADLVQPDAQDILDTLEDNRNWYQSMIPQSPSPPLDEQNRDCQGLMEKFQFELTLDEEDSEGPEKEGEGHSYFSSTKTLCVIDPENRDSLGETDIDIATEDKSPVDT

Proteasome Macropain subunit MB1, sequence (P28074 whole entry): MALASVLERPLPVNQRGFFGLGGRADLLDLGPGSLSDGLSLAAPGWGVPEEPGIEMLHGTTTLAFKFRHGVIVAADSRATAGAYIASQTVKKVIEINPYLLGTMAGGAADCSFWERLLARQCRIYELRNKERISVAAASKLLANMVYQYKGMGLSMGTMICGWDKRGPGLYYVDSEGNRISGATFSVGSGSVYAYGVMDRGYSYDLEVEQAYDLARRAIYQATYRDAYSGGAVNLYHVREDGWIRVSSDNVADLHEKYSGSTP
Beta-lactamase TEM, sequence (P62593 whole entry): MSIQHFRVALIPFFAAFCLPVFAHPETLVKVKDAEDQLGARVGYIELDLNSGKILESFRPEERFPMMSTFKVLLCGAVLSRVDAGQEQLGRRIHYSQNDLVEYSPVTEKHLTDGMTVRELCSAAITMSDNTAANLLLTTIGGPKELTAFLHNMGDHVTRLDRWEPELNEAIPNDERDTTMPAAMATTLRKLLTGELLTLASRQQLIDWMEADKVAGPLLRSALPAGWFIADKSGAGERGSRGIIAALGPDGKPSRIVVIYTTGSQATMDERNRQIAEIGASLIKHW

Consider `Cc1cnn(B(n2cc(C)cn2)n2cc(C)cn2)c1`, for which the IC50 with HepG2 amounted to 1250 nM; with Hep 3B2, 15200 nM.
As to `O=C(/C=C/c1ccc2c(c1)B(O)OC2)c1ccc(F)cc1`, the IC50 in the test on SK-OV-3, in the test with MDA-MB-231 [1] and with HCT-116 was 1400 to 2800 nM throughout.
As to `O=C(O)c1cccc2cc(B(O)O)sc12`, the IC50 was 23000 nM in [2], 20200 to 27700 nM in [3] and 20200 to 27700 nM in [4].
Take `Cc1c(Oc2nc(N)ns2)cc2c(c1C)[C@@H](CC(=O)O)OB2O`: the IC50 (in test [5]; in test [6]; in test [7]; in test [8]; at Beta-lactamase TEM; in test [9]) was 5 to 3900 nM throughout. In addition, the IC50 in test [10] and in test [11] was 5 to 3900 nM throughout.
Molecule `NCc1ccc2sc(B(O)O)cc2c1` showed an IC50 in [12] of 400 nM.
In the case of `CN(C)CCOc1cc(NC(=O)c2ccc3c(c2)COB3O)ccc1Cl`, the EC50 with Leishmania major, with Leishmania panamensis, with Leishmania aethiopica, in the test with Leishmania mexicana, with Leishmania tropica [13] and in the test with Leishmania tropica [14] was 2000 to 23000 nM in each case.
For `Cc1ccc2c(c1-c1ccccc1C(N)=O)B(O)OC2`, the MIC99 in [15] stood at 5 µM (≈ 1.34 µg/mL). In addition, in the test on THP-1, half-maximal inhibition (IC50) was put at 1800 nM.
Regarding `CC[C@H]1OC(=O)[C@H](C)[C@@H](O[C@H]2C[C@@](C)(OC)[C@@H](OC(=O)NCCCNC(=O)CCc3cccc4c3B(O)OC4)[C@H](C)O2)[C@H](C)[C@@H](O[C@@H]2O[C@H](C)C[C@H](N(C)C)[C@H]2O)[C@](C)(O)C[C@@H](C)CN(C)[C@H](C)[C@H]2OC(=O)O[C@@]21C`, the MIC against Streptococcus pneumoniae and against Enterococcus faecium was 0.13 µg/mL (≈ 0.122 µM) throughout.
With `CSC[C@H](NC(=O)c1cc(Cl)ccc1Cl)C(=O)N[C@@H](CC(C)C)B1OCCNCCO1`, the IC50 with MDA-MB-231 [16] was 8.4 nM; in test [17], 4.6 nM.
For the molecule `CC(C)(C)OC(=O)Nc1cccc2cc(B(O)O)sc12`, the IC50 in test [18] and in [19] was 2300 to 4500 nM in each case.
For `O=C(/C=C/c1ccc2c(c1)OCO2)Nc1ccc2c(c1)B(O)OC2`, the values for the IC50 (in [20]; in the test on Trichomonas vaginalis) were 86 nM and 22800 nM, respectively. The molecule further came in with an MIC99 in test [21] of 40.7 µM (≈ 13.2 µg/mL).
On to `CCc1cccc(Nc2ccn(CCC(=O)N[C@@H](CC(C)C)B(O)O)c(=O)c2)c1`, for which affinity in [17] was put at a Ki of 17 nM. This lies in the double-digit nanomolar range.
On to `O=C(Nc1ccc2c(c1)B(O)OC2)c1cn(-c2ccccn2)nn1`, for which the EC50 in the test with Leishmania major, with Leishmania panamensis, in the test on Leishmania aethiopica, in the test on Leishmania mexicana, in the test on Leishmania tropica [13] and in the test on Leishmania tropica [14] was 2000 to 23000 nM throughout.
As for `Nc1ccc2c(c1Br)B(O)OC2`, the MIC99 in [15] is 1.9 µM (≈ 0.433 µg/mL).
Take `O=C(O)/C=C/c1c(B(O)O)sc2ccccc12`: the Ki in [12] and in test [22] was 40 to 90 nM throughout.
In the test with A2780, `OB1OC(N2CCOCC2)c2cc(F)ccc21` (stereo unspecified) gave an IC50 of 14800 nM.
For the molecule `CC(C)(C)OC(=O)c1cccc2cc(B(O)O)sc12`, the IC50 in test [18] was in the range of 2300 to 4500 nM; in test [19], 2300 to 4500 nM; in test [3], 20200 to 27700 nM; in test [4], 20200 to 27700 nM.
Turning to `CCOC(=O)/C(C#N)=C/c1ccc(B(O)O)cc1`, in the test with GH3, the IC50 came out at 140 nM.
Turning to `O=C(O)CCc1cccc2c1B(O)OC2`, the IC50 in the test with Plasmodium falciparum [23], in the test on Plasmodium falciparum [24], with Plasmodium falciparum [25], in the test on Plasmodium falciparum [26], in the test with Plasmodium falciparum [27] and in the test on Plasmodium falciparum [28] was 32 nM in each case. The figures for the IC50 with Plasmodium falciparum [29] and in the test with Plasmodium falciparum [30] were 32 nM and 64 nM, respectively. For the same molecule, the ED90 in the test with Plasmodium falciparum [31] amounted to 0.34 mg/kg; with Plasmodium berghei, 0.57 mg/kg.
`CC(C)OCCOc1nc(Oc2ccc3c(c2)COB3O)ccc1C#N`: in test [32], the IC50 is 2.1 to 8.4 nM.

In general, IC50 refers to the midpoint of a concentration-inhibition curve. Broadly, the EC50 is the concentration needed to bring the measured effect to its halfway point. In general, MIC99 refers to the lowest concentration that inhibits either 99% of growth or 99% of the strains tested, depending on the study. A high value points to weaker potency. Usually MIC stands for the smallest concentration in the dilution series that meets the test's criterion for growth inhibition. High values mean a need for much substance, low ones inhibition by little substance. Usually Ki stands for the dissociation constant of the complex between target and ligand, obtained from inhibition or displacement. Read a low Ki as higher affinity.
